Patent publication US9073821B2, “Hydroxamic acid derivative” (priority 2010, dated 2015)

Each compound was assayed against Pseudomonas aeruginosa LpxC enzyme (Pseudomonas aeruginosa (strain ATCC 15692 / DSM 22644 / CIP 104116 / JCM 14847 / LMG 12228 / 1C / PRS 101 / PAO1), UniProt P47205) (assay: biochemical). Conditions: inhibitory activity on Pseudomonas aeruginosa LpxC enzyme, class symbols A/B/C; read-out: Enzyme inhibitory activity.
Assay type: biochemical
In the case of CNC(=O)C(C(=O)NO)N(C)C(=O)c1ccc(C#Cc2ccc(CN3CCC(O)CC3)cc2)cc1 (stereo not drawn) [Compound 334, N-hydroxy-2-[{[4-({4-[(4-hydroxypiperidin-1-yl)methyl]phenyl}ethynyl)phenyl]carbonyl}(methyl)amino]-N′-methylpropanediamide], the IC50 is reported as < 10 nM.
In the case of CCN(C(=O)c1ccc(C#Cc2ccc(CN3CCCOCC3)cc2)cc1)C(C(=O)NC)C(=O)NO (stereo not drawn) [Compound 336, 2-{ethyl[(4-{[4-(1,4-oxazepan-4-ylmethyl)phenyl]ethynyl}phenyl)carbonyl]amino}-N-hydroxy-N′-methylpropanediamide], the IC50 is reported as < 10 nM.
With CNC(=O)[C@](C)(C(=O)NO)N(C)C(=O)c1ccc(-c2ccccc2)cc1 [Compound 343, (2R)-2-[(biphenyl-4-ylcarbonyl)(methyl)amino]-N-hydroxy-N′,2-dimethylpropanediamide] the IC50 was > 100 nM.
CNC(=O)C(C(=O)NO)N(C)C(=O)c1ccc(-c2nc3ccccc3s2)cc1 (stereo not drawn) [Compound 344, 2-[{[4-(1,3-benzothiazol-2-yl)phenyl]carbonyl}(methyl)amino]-N-hydroxy-N′-methylpropanediamide] showed an IC50 of 10 to 100 nM.
CNC(=O)C(C)(C(=O)NO)N(C)C(=O)c1ccc(C#Cc2ccccc2)cc1 (stereo not drawn) [Compound 345, N-hydroxy-N′,2-dimethyl-2-(methyl {[4-(phenylethynyl)phenyl]carbonyl}amino)propanediamide] was tested, and the IC50 was < 10 nM.
With CNC(=O)C(C)(C(=O)NO)N(C)C(=O)c1ccc(C#Cc2ccc(CN3CCCOCC3)cc2)cc1 (stereo not drawn) [Compound 346, N-hydroxy-N′,2-dimethyl-2-{methyl[(4-{[4-(1,4-oxazepan-4-ylmethyl)phenyl]ethynyl}phenyl)carbonyl]amino}propanediamide] the IC50 was < 10 nM.
With CNC(=O)C(C(=O)NO)N(C)C(=O)c1ccc(-c2nc3ccccc3o2)cc1 (stereo not drawn) [Compound 347, 2-[{[4-(1,3-benzoxazol-2-yl)phenyl]carbonyl}(methyl)amino]-N-hydroxy-N′-methylpropanediamide] the IC50 was > 100 nM.
For CNC(=O)C(C)(C(=O)NO)N(C)C(=O)c1ccc(-c2ccc(OC)cc2)cc1 (stereo not drawn) [Compound 348, N-hydroxy-2-{[(4′-methoxybiphenyl-4-yl)carbonyl](methyl)amino}-N′,2-dimethylpropanediamide], the IC50 was < 10 nM.
With CNC(=O)C(C)(C(=O)NO)N(C)C(=O)c1ccc(-c2ccc(C)cc2)cc1 (stereo not drawn) [Compound 349, N-hydroxy-N′,2-dimethyl-2-{methyl[(4′-methylbiphenyl-4-yl)carbonyl]amino}propanediamide] the IC50 was < 10 nM.
CNC(=O)C(C)(C(=O)NO)N(C)C(=O)c1ccc(-c2ccc(OCCCN3CCOCC3)cc2)cc1 (stereo not drawn) [Compound 350, N-hydroxy-N′,2-dimethyl-2-[methyl({4′-[3-(morpholin-4-yl)propoxy]biphenyl-4-yl}carbonyl)amino]propanediamide] was tested, and the IC50 was < 10 nM.
In the case of CNC(=O)C(C(=O)NO)N(C)C(=O)c1ccc(-c2ccc(S(C)(=O)=O)cc2)cc1 (stereo not drawn) [Compound 352, N-hydroxy-N′-methyl-2-(methyl {[4′-(methylsulfonyl)biphenyl-4-yl]carbonyl}amino)propanediamide], the IC50 is reported as 10 to 100 nM.
Work on CNC(=O)C(C(=O)NO)N(C)C(=O)c1ccc(C#Cc2ccc(C(C)N)cc2)cc1 (stereo not drawn) [Compound 358, 2-{[(4-{[4-(1-aminoethyl)phenyl]ethynyl}phenyl)carbonyl](methyl)amino}-N-hydroxy-N′-methylpropanediamide] yielded an IC50 of 10 to 100 nM.
In the case of CNC(=O)C(C(=O)NO)N(C)C(=O)c1ccc(C#Cc2ccc(C(C)N3CCOCC3)cc2)cc1 (stereo not drawn) [Compound 367, N-hydroxy-N′-methyl-2-(methyl {[4-({4-[1-(morpholin-4-yl)ethyl]phenyl}ethynyl)phenyl]carbonyl}amino)propanediamide], the IC50 is reported as < 10 nM.
In the case of CNC(=O)C(C(=O)NO)N(C)C(=O)c1ccc(C#Cc2cccc(CN3CCOCC3)c2)cc1 (stereo not drawn) [Compound 375, N-hydroxy-N′-methyl-2-{methyl[(4-{[3-(morpholin-4-ylmethyl)phenyl]ethynyl}phenyl)carbonyl]amino}propanediamide], the IC50 is reported as 10 to 100 nM.
With CNC(=O)[C@](C)(C(=O)NO)N(C)C(=O)c1ccc(C#Cc2ccc(CN3CCCOCC3)cc2)cc1 [Compound 377, (2R)-N-hydroxy-N′,2-dimethyl-2-{methyl[(4-{[4-(1,4-oxazepan-4-ylmethyl)phenyl]ethynyl}phenyl)carbonyl]amino}propanediamide] the IC50 was < 10 nM.
In the case of CNC(=O)C(C(=O)NO)N(C)C(=O)c1ccc(C#Cc2ccc(CNCCS(C)(=O)=O)cc2)cc1 (stereo not drawn) [Compound 378, N-hydroxy-N′-methyl-2-{methyl[(4-{[4-({[2-(methylsulfonyl)ethyl]amino}methyl)phenyl]ethynyl}phenyl)carbonyl]amino}propanediamide], the IC50 is reported as < 10 nM.
With CNC(=O)C(C(=O)NO)N(C)C(=O)c1ccc(C#Cc2cccc(CNC3CC3)c2)cc1 (stereo not drawn) [Compound 379, 2-[{[4-({3-[(cyclopropylamino)methyl]phenyl}ethynyl)phenyl]carbonyl}(methyl)amino]-N-hydroxy-N′-methylpropanediamide] the IC50 was 10 to 100 nM.
In the case of CNC(=O)C(C)(NC(=O)c1ccc(C#Cc2ccc(CN3CCCOCC3)cc2)cc1)C(=O)NO (stereo not drawn) [Compound 380, N-hydroxy-N′,2-dimethyl-2-{[(4-{[4-(1,4-oxazepan-4-ylmethyl)phenyl]ethynyl}phenyl)carbonyl]amino}propanediamide], the IC50 is reported as 10 to 100 nM.
CNC(=O)C(C(=O)NO)N(C)C(=O)c1ccc(C#Cc2ccc(OCCN3CCCOCC3)cc2)cc1 (stereo not drawn) [Compound 381, N-hydroxy-N′-methyl-2-(methyl {[4-({4-[2-(1,4-oxazepan-4-yl)ethoxy]phenyl}ethynyl)phenyl]carbonyl}amino)propanediamide] was tested, and the IC50 was < 10 nM.
CNC(=O)C(C(=O)NO)N(C)C(=O)c1ccc(C#Cc2ccc(OCCN3CCOCC3)cc2)cc1 (stereo not drawn) [Compound 382, N-hydroxy-N′-methyl-2-(methyl {[4-({4-[2-(morpholin-4-yl)ethoxy]phenyl}ethynyl)phenyl]carbonyl}amino)propanediamide] was tested, and the IC50 was < 10 nM.
With CNC(=O)C(C(=O)NO)N(C)C(=O)c1ccc(C#Cc2ccc(CN3CCC(OC)CC3)cc2)cc1 (stereo not drawn) [Compound 383, N-hydroxy-2-[{[4-({4-[(4-methoxypiperidin-1-yl)methyl]phenyl}ethynyl)phenyl]carbonyl}(methyl)amino]-N′-methylpropanediamide] the IC50 was < 10 nM.
With CNC(=O)C(C(=O)NO)N(C)C(=O)c1ccc(C#Cc2ccc3c(c2)CN(C2CC2)C3)cc1 (stereo not drawn) [Compound 385, 2-[({4-[(2-cyclopropyl-2,3-dihydro-1H-isoindol-5-yl)ethynyl]phenyl}carbonyl)(methyl)amino]-N-hydroxy-N′-methylpropanediamide] the IC50 was < 10 nM.
With CNC(=O)C(C(=O)NO)N(C)C(=O)c1ccc(-c2ccc(C#CCO)cc2)cc1 (stereo not drawn) [Compound 389, N-hydroxy-2-[{[4′-(3-hydroxyprop-1-yn-1-yl)biphenyl-4-yl]carbonyl}(methyl)amino]-N′-methylpropanediamide] the IC50 was < 10 nM.
For CNC(=O)C(C(=O)NO)N(C)C(=O)c1ccc(-c2ccc(C#CCN3CCOCC3)cc2)cc1 (stereo not drawn) [Compound 390, N-hydroxy-N′-methyl-2-[methyl({4′-[3-(morpholin-4-yl)prop-1-yn-1-yl]biphenyl-4-yl}carbonyl)amino]propanediamide], the IC50 was < 10 nM.
CNC(=O)C(C(=O)NO)N(C)C(=O)c1ccc(C#Cc2ccc(C3(N)CC3)cc2)cc1 (stereo not drawn) [Compound 394, 2-{[(4-{[4-(1-aminocyclopropyl)phenyl]ethynyl}phenyl)carbonyl](methyl)amino}-N-hydroxy-N′-methylpropanediamide] showed an IC50 of 10 to 100 nM.
CCCNc1ccc(C#Cc2ccc(C(=O)N(C)C(C(=O)NC)C(=O)NO)cc2)nc1 (stereo not drawn) [Compound 407, N-hydroxy-N′-methyl-2-{methyl[(4-{[5-(propylamino)pyridin-2-yl]ethynyl}phenyl)carbonyl]amino}propanediamide] was tested, and the IC50 was 10 to 100 nM.
For CNC(=O)C(C(=O)NO)N(C)C(=O)c1ccc(C#Cc2ccn(C)n2)cc1 (stereo not drawn) [Compound 418, N-hydroxy-N′-methyl-2-[methyl({4-[(1-methyl-1H-pyrazol-3-yl)ethynyl]phenyl}carbonyl)amino]propanediamide], the IC50 was > 100 nM.
Work on CNC(=O)C(C(=O)NO)N(C)C(=O)c1ccc(C#Cc2ccc(C(F)(F)F)cc2)cc1 (stereo not drawn) [Compound 420, N-hydroxy-N′-methyl-2-{methyl[(4-{[4-(trifluoromethyl)phenyl]ethynyl}phenyl)carbonyl]amino}propanediamide] yielded an IC50 of 10 to 100 nM.
With CNC(=O)[C@@](C)(C(=O)NO)N(C)C(=O)c1ccc(C#Cc2ccc(CS(C)(=O)=O)cc2)cc1 [Compound 422, (2S)-N-hydroxy-N′,2-dimethyl-2-(methyl {[4-({4-[(methylsulfonyl)methyl]phenyl}ethynyl)phenyl]carbonyl}amino)propanediamide] the IC50 was < 10 nM.
Compound CNC(=O)C(C(=O)NO)N(C)C(=O)c1ccc(C#Cc2ccn(C)c2)cc1 (stereo not drawn) [Compound 424, N-hydroxy-N′-methyl-2-[methyl({4-[(1-methyl-1H-pyrrol-3-yl)ethynyl]phenyl}carbonyl)amino]propanediamide] has an IC50 of 10 to 100 nM.
CNC(=O)[C@@](C)(C(=O)NO)N(C)C(=O)c1ccc(C#Cc2cnn(C)c2)cc1 [Compound 433, (2S)-N-hydroxy-N′,2-dimethyl-2-[methyl({4-[(1-methyl-1H-pyrazol-4-yl)ethynyl]phenyl}carbonyl)amino]propanediamide] was tested, and the IC50 was < 10 nM.
In the case of CNC(=O)C(C(=O)NO)N(C)C(=O)c1ccc(C#Cc2csc(COC)c2)cc1 (stereo not drawn) [Compound 436, N-hydroxy-2-[(4-{[5-(methoxymethyl)thiophen-3-yl]ethynyl}benzoyl)(methyl)amino]-N′-methylpropanediamide], the IC50 is reported as 10 to 100 nM.
CNC(=O)[C@@](C)(C(=O)NO)N(C)C(=O)c1ccc(-c2ccc(OCCN3CCOCC3)cc2)cc1 [Compound 437, (2S)-N-hydroxy-N′,2-dimethyl-2-[methyl({4′-[2-(morpholin-4-yl)ethoxy]biphenyl-4-yl}carbonyl)amino]propanediamide] was tested, and the IC50 was < 10 nM.
